Measurements taken from patent US20210070748A1, “INHIBITORS OF BRUTONS TYROSINE KINASE” (Pharmacyclics LLC, priority 2015, published 2021).

What was measured:
Format in all cases: biochemical
SRC = SRC (Homo sapiens, UniProt P12931); test: Inhibition of a panel of kinases, in vitro HotSpot kinase assay: SRC; conditions: D-compounds panel data; 1 μM ATP
Protocol: (§1) The degree of inhibition of a panel of kinases is determined using the in vitro HotSpot kinase assay (purified enzymes, ^33P-ATP, an appropriate substrate and 1 μM ATP).

BTK-WT = target: T1, BTK-WT (Homo sapiens, UniProt Q06187); test: Btk in vitro inhibitory activity (one of Method A TR-FRET, Method B electrophoretic mobility shift, Method C radiometric filter binding); conditions: D-compounds panel data; read-out: IC50 BTK-WT
T1 construct: purified from insect cells as a full-length construct containing an N-terminal 6X-His tag; His6 (N); made in house; host or cells: insect cells (baculovirus Sf21 in Method B)
T1 sequence (Q06187 whole entry): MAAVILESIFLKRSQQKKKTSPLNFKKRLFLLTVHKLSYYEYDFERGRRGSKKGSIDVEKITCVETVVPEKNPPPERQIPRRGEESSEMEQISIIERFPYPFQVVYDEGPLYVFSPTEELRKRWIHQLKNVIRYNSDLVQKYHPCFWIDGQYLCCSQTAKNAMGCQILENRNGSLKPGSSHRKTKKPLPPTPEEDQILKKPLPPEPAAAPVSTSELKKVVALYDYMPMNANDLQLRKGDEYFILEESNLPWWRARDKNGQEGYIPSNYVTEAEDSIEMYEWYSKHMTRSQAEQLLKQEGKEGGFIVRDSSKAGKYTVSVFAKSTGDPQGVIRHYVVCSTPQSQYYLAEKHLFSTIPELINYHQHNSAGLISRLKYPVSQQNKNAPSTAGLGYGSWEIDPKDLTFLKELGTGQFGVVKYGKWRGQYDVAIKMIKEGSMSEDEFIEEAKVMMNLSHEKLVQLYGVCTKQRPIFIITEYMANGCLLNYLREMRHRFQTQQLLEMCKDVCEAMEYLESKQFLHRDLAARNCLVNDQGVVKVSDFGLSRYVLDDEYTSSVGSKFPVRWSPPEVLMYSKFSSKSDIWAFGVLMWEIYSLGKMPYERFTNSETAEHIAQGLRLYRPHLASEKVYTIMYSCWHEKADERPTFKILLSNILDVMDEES

EGFR = EGFR (Homo sapiens, UniProt P00533); test: Inhibition of a panel of kinases, in vitro HotSpot kinase assay: EGFR; conditions: D-compounds panel data; 1 μM ATP
Chain of EGFR (P00533 25-1210): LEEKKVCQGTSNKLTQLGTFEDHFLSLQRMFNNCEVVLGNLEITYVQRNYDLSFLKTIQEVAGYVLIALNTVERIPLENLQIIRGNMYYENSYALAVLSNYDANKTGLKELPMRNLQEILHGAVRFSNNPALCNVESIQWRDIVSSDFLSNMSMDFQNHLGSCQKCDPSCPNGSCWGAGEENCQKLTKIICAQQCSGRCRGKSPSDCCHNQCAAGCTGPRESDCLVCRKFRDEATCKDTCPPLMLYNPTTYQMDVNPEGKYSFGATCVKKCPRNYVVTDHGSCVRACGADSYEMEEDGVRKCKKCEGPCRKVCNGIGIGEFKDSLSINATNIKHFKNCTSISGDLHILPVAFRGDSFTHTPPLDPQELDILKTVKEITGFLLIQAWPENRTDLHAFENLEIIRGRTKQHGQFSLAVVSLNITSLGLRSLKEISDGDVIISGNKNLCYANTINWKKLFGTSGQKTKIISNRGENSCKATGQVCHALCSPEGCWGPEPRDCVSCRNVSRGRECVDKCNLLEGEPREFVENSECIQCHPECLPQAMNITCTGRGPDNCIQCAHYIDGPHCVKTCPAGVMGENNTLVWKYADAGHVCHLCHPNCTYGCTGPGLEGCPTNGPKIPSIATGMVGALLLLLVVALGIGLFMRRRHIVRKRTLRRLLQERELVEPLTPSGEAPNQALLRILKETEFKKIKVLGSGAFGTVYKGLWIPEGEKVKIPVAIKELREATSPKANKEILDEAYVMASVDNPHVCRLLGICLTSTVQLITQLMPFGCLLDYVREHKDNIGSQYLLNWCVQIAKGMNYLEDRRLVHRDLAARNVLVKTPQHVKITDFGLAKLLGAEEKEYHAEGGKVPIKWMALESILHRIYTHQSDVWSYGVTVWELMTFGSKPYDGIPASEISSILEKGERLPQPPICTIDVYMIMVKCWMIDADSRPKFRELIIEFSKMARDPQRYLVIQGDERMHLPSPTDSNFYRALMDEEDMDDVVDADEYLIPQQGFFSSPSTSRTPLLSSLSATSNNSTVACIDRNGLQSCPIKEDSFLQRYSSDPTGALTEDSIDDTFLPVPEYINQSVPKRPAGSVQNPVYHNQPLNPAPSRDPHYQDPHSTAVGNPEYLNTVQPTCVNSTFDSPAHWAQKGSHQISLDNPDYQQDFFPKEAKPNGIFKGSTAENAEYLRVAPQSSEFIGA
Protocol: as §1

LCK = LCK (Homo sapiens, UniProt P06239); test: Inhibition of a panel of kinases, in vitro HotSpot kinase assay: LCK; conditions: D-compounds panel data; 1 μM ATP; read-out: IC50 LCK
Chain of LCK (P06239 whole entry): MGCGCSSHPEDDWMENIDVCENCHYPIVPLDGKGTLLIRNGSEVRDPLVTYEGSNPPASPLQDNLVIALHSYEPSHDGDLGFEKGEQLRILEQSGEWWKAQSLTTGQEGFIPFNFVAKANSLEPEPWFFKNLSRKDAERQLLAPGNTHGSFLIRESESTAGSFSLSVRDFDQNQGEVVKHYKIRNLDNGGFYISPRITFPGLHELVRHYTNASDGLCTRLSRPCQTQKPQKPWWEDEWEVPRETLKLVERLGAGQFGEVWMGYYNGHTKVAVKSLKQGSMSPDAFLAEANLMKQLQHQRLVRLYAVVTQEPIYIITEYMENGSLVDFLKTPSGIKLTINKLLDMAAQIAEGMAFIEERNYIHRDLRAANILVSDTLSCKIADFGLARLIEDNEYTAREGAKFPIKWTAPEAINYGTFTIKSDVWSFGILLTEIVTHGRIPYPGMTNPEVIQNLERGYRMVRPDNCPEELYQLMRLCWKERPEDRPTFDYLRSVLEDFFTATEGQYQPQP

JAK3 = target: T2, JAK3 (Homo sapiens, UniProt P52333); test: Inhibition of a panel of kinases, in vitro HotSpot kinase assay: JAK3; conditions: D-compounds panel data; 1 μM ATP; read-out: IC50 JAK3
T2 sequence (P52333 1-1124): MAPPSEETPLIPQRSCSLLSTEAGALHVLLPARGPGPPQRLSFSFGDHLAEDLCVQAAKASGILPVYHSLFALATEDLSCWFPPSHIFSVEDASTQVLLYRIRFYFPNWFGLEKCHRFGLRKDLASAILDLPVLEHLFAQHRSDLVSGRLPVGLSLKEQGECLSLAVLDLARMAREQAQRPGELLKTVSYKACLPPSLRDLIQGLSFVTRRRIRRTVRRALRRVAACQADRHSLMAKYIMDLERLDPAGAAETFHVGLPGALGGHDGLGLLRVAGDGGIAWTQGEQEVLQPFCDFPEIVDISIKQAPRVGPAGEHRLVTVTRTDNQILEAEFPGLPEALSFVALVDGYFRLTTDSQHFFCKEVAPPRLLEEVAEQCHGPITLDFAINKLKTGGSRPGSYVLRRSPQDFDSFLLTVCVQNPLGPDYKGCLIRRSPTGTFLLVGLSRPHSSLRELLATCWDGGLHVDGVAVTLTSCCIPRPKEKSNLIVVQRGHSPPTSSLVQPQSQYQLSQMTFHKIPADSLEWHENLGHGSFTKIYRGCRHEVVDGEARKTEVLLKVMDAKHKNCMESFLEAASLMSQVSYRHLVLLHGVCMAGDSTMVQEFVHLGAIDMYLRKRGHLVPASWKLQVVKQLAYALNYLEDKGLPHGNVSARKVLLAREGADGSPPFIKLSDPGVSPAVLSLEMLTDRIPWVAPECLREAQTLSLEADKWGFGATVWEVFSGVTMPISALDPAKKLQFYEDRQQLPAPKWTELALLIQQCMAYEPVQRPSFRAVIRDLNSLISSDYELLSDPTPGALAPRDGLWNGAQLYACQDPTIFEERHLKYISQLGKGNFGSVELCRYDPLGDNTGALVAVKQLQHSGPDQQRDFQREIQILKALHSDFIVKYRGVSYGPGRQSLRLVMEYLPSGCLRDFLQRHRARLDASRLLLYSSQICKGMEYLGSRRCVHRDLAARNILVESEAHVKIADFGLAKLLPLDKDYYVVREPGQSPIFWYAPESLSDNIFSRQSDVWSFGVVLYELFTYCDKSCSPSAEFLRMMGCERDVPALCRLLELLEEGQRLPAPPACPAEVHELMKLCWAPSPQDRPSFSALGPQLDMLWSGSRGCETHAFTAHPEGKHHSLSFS

Chain of SRC (P12931 whole entry): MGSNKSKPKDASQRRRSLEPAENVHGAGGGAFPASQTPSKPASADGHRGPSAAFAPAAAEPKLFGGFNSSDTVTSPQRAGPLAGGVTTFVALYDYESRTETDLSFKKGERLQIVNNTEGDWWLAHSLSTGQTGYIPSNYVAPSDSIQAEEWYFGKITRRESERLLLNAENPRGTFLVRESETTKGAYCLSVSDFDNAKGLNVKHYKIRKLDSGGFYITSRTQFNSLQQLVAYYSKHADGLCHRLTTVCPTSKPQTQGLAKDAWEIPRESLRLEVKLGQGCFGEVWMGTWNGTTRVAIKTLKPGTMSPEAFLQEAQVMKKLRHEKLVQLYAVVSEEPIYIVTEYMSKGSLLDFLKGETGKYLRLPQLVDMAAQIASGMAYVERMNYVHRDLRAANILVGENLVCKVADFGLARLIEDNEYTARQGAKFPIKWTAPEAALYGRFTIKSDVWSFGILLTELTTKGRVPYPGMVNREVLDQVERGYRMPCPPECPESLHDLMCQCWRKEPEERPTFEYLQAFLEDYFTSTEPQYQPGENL

Row | Compound | IC50 (SRC) [nM] | IC50 (BTK-WT) [nM] | IC50 (EGFR) [nM] | IC50 (LCK) [nM] | IC50 (JAK3) [nM]
1 | C[C@@H]1[C@H](NC(=O)N(C)C)CCCN1c1cnc(C(N)=O)c(Nc2ccc(N3CCN(C)CC3)cc2)c1 [Example D-127, 5-[(2R,3R)-3-[(dimethylcarbamoyl)amino]-2-methylpiperidin-1-yl]-3-{[4-(4-methylpiperazin-1-yl)phenyl]amino}pyridine-2-carboxamide] | 1000 to 10000 | 100 to 1000 | > 10000 | 1000 to 10000 | > 10000
2 | C[C@H]1CC[C@@H](NC(=O)c2ccc(C(C)(C)O)cc2)CN1c1nnc(C(N)=O)c(Nc2cnn(C)c2)n1 [Example D-157, 3-[(2S,5R)-5-[4-(2-hydroxypropan-2-yl)benzamido]-2-methylpiperidin-1-yl]-5-[(1-methyl-1H-pyrazol-4-yl)amino]-1,2,4-triazine-6-carboxamide] | 10 to 100 | ≤ 10 | 1000 to 10000 | 10 to 100 | 100 to 1000
3 | Cc1ccc(-c2cnc([C@@H]3CCCN(c4cnc(C(N)=O)c(Nc5cc(C)ns5)n4)[C@@H]3C)[nH]2)cc1 [Example D-131, 3-[(3-methyl-1,2-thiazol-5-yl)amino]-5-[(2R,3R)-2-methyl-3-[5-(4-methylphenyl)-1H-imidazol-2-yl]piperidin-1-yl]pyrazine-2-carboxamide] | 100 to 1000 | 10 to 100 | 100 to 1000 | 100 to 1000 | 100 to 1000
4 | Cc1ccc(-c2cnc([C@@H]3CCCN(c4cnc(C(N)=O)c(Nc5cc(C)ns5)n4)C3)[nH]2)cc1 [Example D-137, 3-[(3-methyl-1,2-thiazol-5-yl)amino]-5-[(3R)-3-[5-(4-methylphenyl)-1H-imidazol-2-yl]piperidin-1-yl]pyrazine-2-carboxamide] | 1000 to 10000 | 10 to 100 | 1000 to 10000 | 1000 to 10000 | > 10000
5 | CC(C)n1cc(Nc2nc(N3CCC[C@@H](NC(=O)c4ccc(C5CC5)cc4F)[C@H]3C)cnc2C(N)=O)cn1 [Example D-123, 5-[(2R,3R)-3-(4-cyclopropyl-2-fluorobenzamido)-2-methylpiperidin-1-yl]-3-{[1-(propan-2-yl)-1H-pyrazol-4-yl]amino}pyrazine-2-carboxamide] | 100 to 1000 | ≤ 10 | 1000 to 10000 | 100 to 1000 | > 10000
6 | C[C@@H]1[C@H](NC(=O)N(C)C)CCCN1c1cnc(C(N)=O)c(Nc2cc(C3CCN(C4CCCC4)CC3)ns2)n1 [Example D-163, 3-{[3-(1-cyclopentylpiperidin-4-yl)-1,2-thiazol-5-yl]amino}-5-[(2R,3R)-3-[(dimethylcarbamoyl)amino]-2-methylpiperidin-1-yl]pyrazine-2-carboxamide] | ≤ 10 | ≤ 10 | 100 to 1000 | < 10 | 100 to 1000
7 | CNC(=O)N[C@@H]1CCCN(c2cnc(C(N)=O)c(Nc3cnn(C)c3)n2)[C@@H]1C [Example D-109, 3-[(1-methyl-1H-pyrazol-4-yl)amino]-5-[(2R,3R)-2-methyl-3-[(methylcarbamoyl)amino]piperidin-1-yl]pyrazine-2-carboxamide] | 100 to 1000 | ≤ 10 | 1000 to 10000 | 100 to 1000 | 1000 to 10000
8 | Cc1cc(Nc2cc(N3CCC[C@@H](NC(=O)c4ccc(C5CC5)cc4F)[C@H]3C)cnc2C(N)=O)sn1 [Example D-116, 5-[(2R,3R)-3-(4-cyclopropyl-2-fluorobenzamido)-2-methylpiperidin-1-yl]-3-[(3-methyl-1,2-thiazol-5-yl)amino]pyridine-2-carboxamide] | 100 to 1000 | ≤ 10 | 1000 to 10000 | 10 to 100 | 1000 to 10000
9 | C[C@@H]1[C@H](NC(=O)c2ccc(C3CC3)cc2F)CCCN1c1cnc(C(N)=O)c(Nc2ccc(CN3CCN(C)CC3)cc2)c1 [Example D-125, 5-[(2R,3R)-3-(4-cyclopropyl-2-fluorobenzamido)-2-methylpiperidin-1-yl]-3-({4-[(4-methylpiperazin-1-yl)methyl]phenyl}amino)pyridine-2-carboxamide] | 1000 to 10000 | ≤ 10 | > 10000 | 100 to 1000 | 1000 to 10000
10 | CN1CCN(c2ccc(Nc3nc(N4CCC[C@@H](n5ccc6cc(C7CC7)ccc6c5=O)C4)cnc3C(N)=O)cc2)CC1 [Example D-165, 5-[(3R)-3-(6-cyclopropyl-1-oxo-1,2-dihydroisoquinolin-2-yl)piperidin-1-yl]-3-{[4-(4-methylpiperazin-1-yl)phenyl]amino}pyrazine-2-carboxamide] | 100 to 1000 | ≤ 10 | > 10000 | 100 to 1000 | 1000 to 10000
11 | C[C@@H]1[C@H](NC(=O)c2ccc(C3CC3)cc2F)CCCN1c1cnc(C(N)=O)c(Nc2ccc(S(C)(=O)=O)cc2)n1 [Example D-133, 5-[(2R,3R)-3-(4-cyclopropyl-2-fluorobenzamido)-2-methylpiperidin-1-yl]-3-[(4-methanesulfonylphenyl)amino]pyrazine-2-carboxamide] | 100 to 1000 | ≤ 10 | 1000 to 10000 | 100 to 1000 | 1000 to 10000
12 | C[C@@H]1[C@H](NC(=O)c2ccc(C3CC3)cc2)CCCN1c1cnc(C(N)=O)c(Nc2cnn(C)c2)n1 [Example D-135, 5-[(2R,3R)-3-(4-cyclopropylbenzamido)-2-methylpiperidin-1-yl]-3-[(1-methyl-1H-pyrazol-4-yl)amino]pyrazine-2-carboxamide] | 100 to 1000 | ≤ 10 | 1000 to 10000 | 100 to 1000 | 1000 to 10000
13 | C[C@@H]1[C@H](NC(=O)c2ccc(C3CC3)cc2)CCCN1c1cnc(C(N)=O)c(Nc2ccc(OC3C[C@H]4CC[C@@H](C3)N4C)cc2)n1 (stereo partly drawn) [Example D-106, 5-[(2R,3R)-3-(4-cyclopropylbenzamido)-2-methylpiperidin-1-yl]-3-[(4-{[(1R,5S)-8-methyl-8-azabicyclo[3.2.1]octan-3-yl]oxy}phenyl)amino]pyrazine-2-carboxamide] | 10 to 100 | ≤ 10 | 100 to 1000 | 10 to 100 | 100 to 1000
14 | C[C@@H]1[C@H](NC(=O)c2ccc(C3CC3)cc2)CCCN1c1cnc(C(N)=O)c(Nc2ccc(N3CCN(C)CC3)c(F)c2)n1 [Example D-146, 5-[(2R,3R)-3-(4-cyclopropylbenzamido)-2-methylpiperidin-1-yl]-3-{[3-fluoro-4-(4-methylpiperazin-1-yl)phenyl]amino}pyrazine-2-carboxamide] | 10 to 100 | ≤ 10 | 100 to 1000 | 10 to 100 | 1000 to 10000
15 | C[C@@H]1[C@H](NC(=O)c2ccc(C(F)(F)F)cc2)CCCN1c1cnc(C(N)=O)c(Nc2ccc(N3CCN(C)CC3)cc2)n1 [Example D-11, 5-[(2R,3R)-2-methyl-3-[4-(trifluoromethyl)benzamido]piperidin-1-yl]-3-{[4-(4-methylpiperazin-1-yl)phenyl]amino}pyrazine-2-carboxamide] | 10 to 100 | ≤ 10 | 100 to 1000 | 10 to 100 | 1000 to 10000
